Experimental data published in US20220304992A1, “METHODS OF REJUVENATING AGED TISSUE BY INHIBITING 15-HYDROXYPROSTAGLANDIN DEHYDROGENASE (15-PGDH)” (The Board of Trustees of the Leland Stanford Junior …, priority 2019, published 2022).
“Also recorded” adds a separate entry of the source.

Assays:
15-PGDH = molecular target: T1, 15-PGDH (Mus musculus, UniProt Q8VCC1); experiment: 15-PGDH kinetic assay (PicoProbe kit) in muscle lysates of treated mice; assay type: in vivo; conditions: aged mice, daily i.p., 1 month
T1 construct: 15-PGDH specific enzymatic activity assayed in muscle tissues of vehicle and SW treated aged muscles; from tissue; host or cells: skeletal muscle lysates of aged C57BL/6 mice
T1 sequence (Q8VCC1 whole entry): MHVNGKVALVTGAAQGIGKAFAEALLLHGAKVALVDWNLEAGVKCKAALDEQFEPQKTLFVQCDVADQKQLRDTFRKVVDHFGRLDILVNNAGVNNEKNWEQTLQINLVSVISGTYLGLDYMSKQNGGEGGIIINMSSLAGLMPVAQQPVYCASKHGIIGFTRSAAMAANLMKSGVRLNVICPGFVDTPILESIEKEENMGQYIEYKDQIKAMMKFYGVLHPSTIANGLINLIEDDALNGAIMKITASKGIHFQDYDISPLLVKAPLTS
Method: 15-PGDH activity was analyzed in tissue lysates using the BioVision PicoProbe 15-PGDH Activity Assay Kit (Cat # K562) according to the protocol of the manufacturer. Briefly, tissues were isolated and snap frozen in liquid nitrogen.

pFOXO = experiment: Immunoblots of muscle lysates from aged vehicle and SW treated mice; assay type: in vivo, mouse; conditions: aged muscles, SW vs vehicle
Method: Total lysates were prepared using lysis buffer (50 mM Tris-HCl pH 7.5, 150 mM NaCl, 4 mM CaCl, 1.5% Triton X-100, protease inhibitors and micrococcal nuclease). For tissue extracts, lysates were homogenized a FastPrep 24 homogenizer (MP Biomedicals) for 40 seconds at a speed of 6 m/s. We used the following antibodies: 15-PGDH (Santa Cruz Biotechnology, cat # sc-271418); phospho-AKT (Ser 473) (Cell Signaling cat #4060), AKT (Cell signaling cat #2920); phospho-FoxO1 (Thr24)/FoxO3a (Thr32) Antibody (Cell Signaling cat #9464T); Foxo3a (Cell Signaling cat #2497); phospho-CREB (Ser133) (Cell Signaling cat #9198S); phospho-S6 ribosomal protein (Ser235/236) (Cell Signaling cat#4858); SMC1 (Bethyl Laboratories cat# A300-055A-T). We used HRP conjugated secondary antibodies and developed by incubating the membranes with ECL Western Blotting Substrate (Nacalai USA) and imaging using the ChemiDoc Imaging System (BioRad).

myofibers = experiment: Myofiber cross-sectional area and fiber typing by immunofluorescence; assay type: in vivo, mouse; conditions: aged mice, 1 month
Method: We collected and prepared recipient Tibialis anterior (TA) or gastrocnemius (GA) muscle tissues for histology as previously described (5). We fixed transverse sections from muscles using 4% PFA, blocked and permeabilized using PBS/1% BSA/0.1% Triton X-100 and incubated with anti-LAMININ (Millipore, clone A5, catalog #05-206, 1:200) and then with AlexaFluor secondary Antibodies (Jackson ImmunoResearch Laboratories, 1:200) or wheat germ agglutinin-Alexa 647 conjugate (WGA, Thermo Fisher Scientific). We counterstained nuclei with DAPI (Invitrogen).
We acquired images on a Zeiss 510 laser scanning confocal microscope (Carl Zeiss Microimaging) with 40x/0.9N.A. objective to capture multiple consecutive focal planes or using the KEYENCE BZ-X700 all-in-one fluorescence microscope (Keyence) with 20x/0.75 N.A. objectives. We analyzed the myofiber area using the Keyence Advanced Analysis Software. For cross sectional area the maximum cross sectional area of the muscle was quantified or at least 10 fields of LAMININ-stained myofiber cross-sections encompassing over 400 myofibers were captured for each mouse as above. […] The researchers performing the imaging acquisition and scoring were unaware of treatment condition given to sample groups analyzed. […]
Images were acquired using KEYENCE BZ-X700 all in one fluorescence microscope with 20x/0.75 NA. objectives and individual fields were stitched and analyzed using Keyence Advanced Analysis Software.
For cultured myotubes we performed fixation using 4% PFA, blocking and permeabilization using PBS/1% BSA/0.1% Triton X-100 and staining with primary antibodies anti-MYH (Thermo Fisher Scientific, catalog #14-6503-82, clone MF-20, 1:500) and then with AlexaFluor secondary Antibodies (Jackson ImmunoResearch Laboratories, 1:500). […] We acquired images using the KEYENCE BZ-X700 all-in-one fluorescence microscope (Keyence) with 20x/0.75 N.A. objectives. We analyzed the fiber area using the Keyence Advanced Analysis Software. […] The researchers performing the imaging acquisition and scoring were unaware of treatment condition given to sample groups analyzed.

CCCC[S+]([O-])c1sc2nc(-c3cccs3)cc(-c3ccccc3)c2c1N (centres unmarked) [SW033291, 2-(butylsulfinyl)-4-phenyl-6-(thiophen-2-yl)thieno[2,3-b]pyridin-3-amine]
15-PGDH specific activity in muscle (15-PGDH): significantly reduced | pFOXO (pFOXO): increased | cross-sectional area of glycolytic (type IIb) fibers (myofibers): increase | cross-sectional area of oxidative (type IIa) fibers (myofibers): increase | myofiber cross-sectional area (myofibers; daily i.p., listed as SW): larger; also recorded: significantly augmented
